Here are results for 2 molecules from patent US11299500B2, “Crystalline form of lorlatinib free base hydrate” (Pfizer Inc., priority 2017, dated 2022).

The nature of data set [1]: Water sorption/desorption study by DVS. The data set is classed as physicochemical. As to the method:
A DVS method was employed to study the sorption/desorption behavior of Form 24.
Method: The method involved a standard sorption run from 0% RH to 90% RH, employing humidity rise at steps of 10% RH at 20° C., followed by a de-sorption run down to 0% RH and a second sorption/desorption cycle from 0% RH to 90% RH in 10% step change of RH at 20° C.

Data set [2] in a line: Physical stability in aqueous-based formulations. The data set is classed as physicochemical. As to conditions: relative to anhydrous free base (Form 7) and acetic acid solvate (Form 3); e.g., topical formulations.
Data set [3] concerns anaplastic lymphoma kinase (ALK). As to conditions: wild type and resistance mutant forms, including ALK G1202R; cited from earlier work.
In data set [4] the test system is c-ros oncogene 1 (ROS1) receptor tyrosine kinase. As to conditions: wild type and resistance mutant forms, including ROS1 G2032R; cited from earlier work.
Data set [5] concerns ALK-positive NSCLC xenograft models and intracranial ALK-positive tumor models. As to conditions: cited from earlier work.
Where [6] appears, read: targeted relative humidity 0% RH, 20° C.
[7] abbreviates: targeted relative humidity 10% RH, 20° C.
The mark [8] stands for this setting: targeted relative humidity 20% RH, 20° C.
The mark [9] stands for this setting: targeted relative humidity 30% RH, 20° C.
[10] abbreviates: targeted relative humidity 40% RH, 20° C.
The mark [11] stands for this setting: targeted relative humidity 50% RH, 20° C.
The mark [12] stands for this setting: targeted relative humidity 60% RH, 20° C.
Setting [13] is: targeted relative humidity 70% RH, 20° C.
Setting [14] is: targeted relative humidity 80% RH, 20° C.
Setting [15] is: targeted relative humidity 90% RH, 20° C.

Turning to `C[C@H]1Oc2cc(cnc2N)-c2c(nn(C)c2C#N)CN(C)C(=O)c2ccc(F)cc21` [Form 24, (10R)-7-amino-12-fluoro-2,10,16-trimethyl-15-oxo-10,15,16,17-tetrahydro-2H-8,4-(metheno)pyrazolo[4,3-h][2,5,11]benzoxadiazacyclotetra-decine-3-carbonitrile (lorlatinib) Free Base Hydrate (Form 24)], the “hysteresis of de-sorption isotherms with respect to sorption isotherm” value in data set [1] (0-90% RH, 20° C.) is reported as “very little hysteresis”. Further, the “% Water First Cycle” value in data set [1] (setting [6]) was 0.00%; in data set [1] (setting [7]), 0.06%; in data set [1] (setting [8]), 0.13%; in data set [1] (setting [9]), 0.19%; in data set [1] (setting [10]) it was 0.27%; in data set [1] (setting [11]) it was 0.34%. Moreover, the “% Water First Cycle” value is 0.43% in data set [1] (setting [12]), 0.52% in data set [1] (setting [13]), 0.64% in data set [1] (setting [14]) and 0.78% in data set [1] (setting [15]). For the same molecule, the “% Water Second Cycle” value in data set [1] (setting [6]) is given as 0.00%; in data set [1] (setting [7]), 0.06%; in data set [1] (setting [8]) it was 0.13%; in data set [1] (setting [9]), 0.20%; in data set [1] (setting [10]), 0.27%; in data set [1] (setting [11]), 0.35%. The “% Water Second Cycle” value was 0.44% in data set [1] (setting [12]), 0.54% in data set [1] (setting [13]), 0.65% in data set [1] (setting [14]) and 0.78% in data set [1] (setting [15]). Besides, the “change of mass between a dry and wet state” value in data set [1] (water level change between dry and wet state) is given as “below 1%”. In addition, the “physical stability in aqueous-based formulations” value in data set [2] is “improved physical stability”.

As for `C[C@H]1Oc2cc(cnc2N)-c2c(nn(C)c2C#N)CN(C)C(=O)c2ccc(F)cc21` [Lorlatinib, (10R)-7-amino-12-fluoro-2,10,16-trimethyl-15-oxo-10,15,16,17-tetra-hydro-2H-8,4-(metheno)pyrazolo[4,3-h][2,5,11]benzoxadiazacyclotetradecine-3-carbonitrile], in data set [3], the “potency against ALK” value was “nanomolar potency”. Moreover, the “potency against ROS1” value in data set [4] was “nanomolar potency”. Moreover, the antitumor activity entry in data set [5] was “demonstrated antitumor activity”.
